Broadly, the EC50 is the midpoint of the concentration-response curve.

Results on 13 compounds are retold here after patent US12655174B2, “Adenosine A3 receptor agonists, preparation methods and uses thereof” (ZHEJIANG VIMGREEN PHARMACEUTICALS, LTD., priority 2020, dated 2026).

Structures are written as SMILES.

Series [1] has as its target T1, ADORA3 receptor (CHO cells stably expressing ADORA3 receptor) (Homo sapiens, UniProt P0DMS8).
T1 construct: expressed in transfected cells
T1 sequence (P0DMS8 1-318): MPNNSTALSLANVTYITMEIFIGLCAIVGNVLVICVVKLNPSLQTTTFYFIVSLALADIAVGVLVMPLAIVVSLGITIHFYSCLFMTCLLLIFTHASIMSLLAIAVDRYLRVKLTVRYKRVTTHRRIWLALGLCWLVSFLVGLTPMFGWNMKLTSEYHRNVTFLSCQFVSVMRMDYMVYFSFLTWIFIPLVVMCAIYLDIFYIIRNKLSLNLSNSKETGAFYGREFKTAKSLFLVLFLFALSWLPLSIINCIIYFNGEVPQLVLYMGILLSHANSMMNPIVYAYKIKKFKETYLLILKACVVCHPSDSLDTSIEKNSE
Description: Effect of compound on intracellular cAMP level by adenosine A3 receptor agonism. In kind it is cell-based. As to conditions: forskolin-stimulated. The method, boiled down:
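Agonism read as change in forskolin-stimulated cAMP by TR-FRET competition (Eu-cAMP tracer, ULight anti-cAMP antibody). Compound tested as 10 three-fold dilutions on ADORA3-CHO cells in buffer containing rolipram, incubated at 37 °C. Hill fit of % activation against log concentration gives EC50.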

Series [2] deals with T2, ADORA3 receptor (Homo sapiens, UniProt P0DMS8).
T2 sequence (P0DMS8 1-318): T1 sequence (P0DMS8 1-318)
Description: Agonistic effect on adenosine A3 receptor by FLIPR assay (calcium flux assay). It counts as cell-based. To be noted: agonist mode. As to the method:
Example 27: Agonistic Effect of Compound on Adenosine A3 Receptor by FLIPR Assay (Calcium Flux Assay)
First Day: Cell Inoculation
• 1) With regard to ADORA3 receptor, cultured cells were used for inoculation: the culture medium was aspirated and the cells were washed twice with 10 mL of DPBS. 2 mL of 0.05% EDTA-trypsin was added and the cells were incubated at 37° C. for 1 minute. Then 10 mL of the culture medium was added to stop the digestion and the cell suspension was transferred to a 50-mL tapered tube. • 2) The 50-mL tapered tube containing the various cells was centrifuged at 300 g for 5 minutes. • 3) A supernatant was aspirated and no cells should be aspirated. • 4) The cell precipitate was resuspended in 6-8 mL of the culture medium, and then 0.5 mL of the cells were taken out for cell counting by using a Vi-cell XR cell viability analyzer. • 5) The cell suspension was diluted to 1×10^6 cells/mL (20 μL of 20,000 cells per well) in the culture medium and the cells were inoculated into a cell plate (384-well Poly-D-lysine protein-coated plate, Greiner-781946). • 6) The plate was placed in a 37° C./5% CO2 incubator for 16-20 hours. Second Day: • 1) Preparation of 2×Fluo-4 Direct™ uptaking dye • a. Preparation of probenecid solution • 1 mL of FLIPR assay buffer was added to 77 mg of probenecid (provided by Fluo-4 Direct™ calcium assay kit) to be prepared into 250 mM of a probenecid solution. The fresh probenecid solution was used daily. • b. 2×(8 μM) Fluo-4 Direct™ loading dye (per 10 mL)
A vial of the Fluo-4 Direct™ crystal was thawed and then 10 mL of the FLTPR analytical buffer was added to the vial. Then 0.2 mL of 250 mM of a probe solution was added to every 10 mL Fluo-4 Direct™ crystal to a final assay concentration of 2.5 mM. The solution was vortexed and stood for >5 min at a dark place. 2×Fluo-4 Direct™ uptaking dye was freshly prepared daily. • 2) Compound preparation • a. Preparation of compound plate: all reference and test compounds were serially diluted 4-fold in 10 points by using an Echo liquid processor and then 900 nL of the diluted compounds were transferred to a compound plate. • b. 30 μL FLIPR analytical buffer was added to the compound plate and the plate was centrifuged at 300 g for 1 minute. • 3) FLIPR analysis • a. With regard to ADORA3 receptor: firstly, the cell plate was taken out from a culture box. The culture medium was then aspirated and 20 μL of the FLIPR analytical buffer was added. The cell plate was placed in an incubator for 45 minutes and at a room temperature for 15 minutes. • b. To run an experimental solution on […], 10 μL of the FLIPR analytical buffer was transferred from the compound plate to a cell plate, and then the fluorescent signal was read. Then 10 μL of a compound solution was transferred from the compound plate to the cell plate and the fluorescence signal was read. “Max−min” was calculated from Reader 91 to an allowed maximum value. • c. With regard to agonist: activation %=(RLU−LC)/(HC−LC)*100, • wherein RLU=relative light unit, allowed maximum signal was 91; HC=average signal of high concentration agonist; and LC=mean signal of DMSO well. • d. Data were fitted to a model “log (agonist) versus response-variable slope” by using GraphPad Prism 5 to determine an EC50 value. • e. […] 2. Test Result

Series [3] can be described thus: Pharmacokinetic test of compound in SD rat. It counts as in vivo. To be noted: SD rats, intragastric administration (IG), cassette dosing. As to the method: Example 28: Pharmacokinetic Test of Compound in SD Rat
The animal species used in this experiment were SD rats. There were 3 animals per group. The rats were dosed in cassette format, i.e., multiple (1-6) different compounds were dosed simultaneously to the same group of the SD rats. The vehicle used for the drug was 5% DMSO+5% Solutl+90% ([…] methylcellulose M450), and the administration route was intragastric administration (IG).

As to `CNC(=O)[C@H]1OC(n2cnc3c(NCc4ccccn4)nc(-c4cncc(F)c4)nc32)[C@H](O)[C@@H]1O` (stereo in doubt) [compound 305, (2S,3S,4R,5S)-5-(2-(5-fluoropyridin-3-yl)-6-((pyridin-2-ylmethyl)amino)-9H-purin-9-yl)-3,4-dihydroxyl-N-methyltetrahydrofuran-2-carboxamide], the values for the EC50 in series [1] and in series [2] were 2.73 nM and 10.9 nM, respectively. The “AUC_D” value in series [3] is 161.47 kg·ng·h/mL/mg.
The matching figures for `CNC(=O)[C@H]1O[C@@H](n2cnc3c(NCc4cc(C)ccn4)nc(-c4cncc(F)c4)nc32)[C@H](O)[C@@H]1O` [compound 71, (2S,3S,4R,5R)-5-(2-(5-fluoropyridin-3-yl)-6-(((4-methylpyridin-2-yl)methyl)amino)-9H-purin-9-yl)-3,4-dihydroxyl-N-methyltetrahydrofuran-2-carboxamide]: < 0.51 nM, 1.93 nM and 757.44 kg·ng·h/mL/mg.
For `CNC(=O)[C@H]1O[C@@H](n2cnc3c(NCc4cccc(C)n4)nc(-c4cncc(F)c4)nc32)[C@H](O)[C@@H]1O` [compound 106], the EC50 in series [1] was 3.02 nM; in series [2], 17.6 nM. Moreover, the “AUC_D” value in series [3] stood at 521.57 kg·ng·h/mL/mg.
Regarding `CNC(=O)[C@H]1O[C@@H](n2cnc3c(NCc4cccc(C)n4)nc(-c4cncc(Cl)c4)nc32)[C@H](O)[C@@H]1O` [compound 112], the EC50 in series [1] was determined as 3.53 nM; in series [2], 44.4 nM. Moreover, the “AUC_D” value in series [3] came to 1790.18 kg·ng·h/mL/mg.
In the case of `CNC(=O)[C@H]1O[C@@H](n2cnc3c(NCc4cc(C)ccc4Cl)nc(-c4cncc(Cl)c4)nc32)[C@H](O)[C@@H]1O` [compound 177, (2S,3S,4R,5R)-5-(6-(2-chloro-5-methylbenzylamino)-2-(5-chloropyridin-3-yl)-9H-purin-9-yl)-3,4-dihydroxyl-N-methyl-tetrahydrofuran-2-formamide], the figures for the EC50 in series [1] and in series [2] were 2.08 nM and 70.3 nM, respectively. Also, the “AUC_D” value in series [3] worked out at 5247.70 kg·ng·h/mL/mg.
The matching figures for `CNC(=O)[C@H]1O[C@@H](n2cnc3c(NCc4cc(Cl)ccn4)nc(-c4cncc(F)c4)nc32)[C@H](O)[C@@H]1O` [compound 183, (2S,3S,4R,5R)-5-(6-((4-chloropyridin-2-yl)methylamino)-2-(5-fluoropyridin-3-yl)-9H-purin-9-yl)-3,4-dihydroxyl-N-methyl-tetrahydrofuran-2-formamide]: < 0.51 nM, 9.07 nM and 947.63 kg·ng·h/mL/mg.
The matching figures for `CNC(=O)[C@H]1O[C@@H](n2cnc3c(NCc4cc(C)ccn4)nc(-c4cccnc4)nc32)[C@H](O)[C@@H]1O` [compound 186, (2S,3S,4R,5R)-3,4-dihydroxyl-N-methyl-5-(6-((4-methylpyridin-2-yl)methylamino)-2-(pyridin-3-yl)-9H-purin-9-yl)-tetrahydrofuran-2-formamide]: < 0.51 nM, 11.8 nM and 786.27 kg·ng·h/mL/mg.
In the case of `CNC(=O)[C@H]1O[C@@H](n2cnc3c(NCc4cc(C)ccc4F)nc(-c4cncc(Cl)c4)nc32)[C@H](O)[C@@H]1O` [compound 226, (2S,3S,4R,5R)-5-(2-(5-chloropyridin-3-yl)-6-((2-fluoro-5-methylbenzyl)amino)-9H-purin-9-yl)-3,4-dihydroxyl-N-methyltetrahydrofuran-2-carboxamide], the EC50 was determined as 1.2 nM in series [1] and 33.5 nM in series [2]. In addition, the “AUC_D” value in series [3] is 20055.61 kg·ng·h/mL/mg.
The matching figures for `[2H]C([2H])([2H])NC(=O)[C@H]1O[C@@H](n2cnc3c(NCc4ccco4)nc(-c4cncc(Cl)c4)nc32)[C@H](O)[C@@H]1O` [compound 256, (2S,3S,4R,5R)-5-(2-(5-chloropyridin-3-yl)-6-((furan-2-ylmethyl)amino)-9H-purin-9-yl)-3,4-dihydroxyl-N-(methyl-d3)tetrahydrofuran-2-carboxamide]: 11.6 nM, 98.5 nM and 706.00 kg·ng·h/mL/mg.
The like results for `CNC(=O)[C@H]1O[C@@H](n2cnc3c(NCc4cc(C)ccn4)nc(-c4cncc(Cl)c4)nc32)[C@H](O)[C@@H]1O` [compound 293, (2S,3S,4R,5R)-5-(2-(5-chloropyridin-3-yl)-6-(((4-methylpyridin-2-yl)methyl)amino)-9H-purin-9-yl)-3,4-dihydroxyl-N-methyltetrahydrofuran-2-carboxamide] were, in that order, < 0.51 nM, 3.27 nM and 2016.46 kg·ng·h/mL/mg.
As for `CNC(=O)[C@H]1O[C@@H](n2cnc3c(NCc4ccccn4)nc(-c4cncc(Cl)c4)nc32)[C@H](O)[C@@H]1O` [compound 306, (2S,3S,4R,5S)-5-(2-(5-chloropyridin-3-yl)-6-((pyridin-2-lymethyl)amino)-9H-purin-9-yl)-3,4-dihydroxyl-N-methyltetrahydrofuran-2-carboxamide], the EC50 in series [1] amounted to 5.81 nM; in series [2], 39.2 nM. Moreover, the “AUC_D” value in series [3] was determined as 659.04 kg·ng·h/mL/mg.
With `CNC(=O)[C@H]1O[C@@H](n2cnc3c(NCc4cccc(Cl)n4)nc(-c4cncc(Cl)c4)nc32)[C@H](O)[C@@H]1O` [compound 308], the EC50 came out at 3.27 nM in series [1] and 71.4 nM in series [2]. In addition, the “AUC_D” value in series [3] stood at 986.00 kg·ng·h/mL/mg.
The matching figures for `CNC(=O)[C@H]1O[C@@H](n2cnc3c(NCc4cc(C)ccn4)nc(-c4cncc(OC)c4)nc32)[C@H](O)[C@@H]1O` [compound 312]: < 0.51 nM, 4.05 nM and 1820.66 kg·ng·h/mL/mg.
